The values below come from patent US9187472B2 (AbbVie Inc., priority 2012, dated 2015).

One assay concerns PC3 cells. As to the kind of experiment: NAMPT Cell Proliferation Assay. The following applies: Homo sapiens, PC-3, 120 h, 5 days incubation, cell viability by Cell Titer Glo. In kind it is cell-based. The procedure, abridged:
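Proliferation of PC3 cells treated 5 days with a 10-fold compound series (top 10 μM) was quantified by Cell Titer Glo luminescence; IC50s were fitted from percent inhibition.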
For orientation: Cellular ATP, detected with luciferase, serves as a proxy for viable cell number.

The target of the next assay is NAMPT (Homo sapiens, UniProt P43490). Put plainly: TR-FRET Binding Assay of NAMPT with PRPP. The following applies: with 200 μM PRPP and 2.5 mM ATP; 2 nM NAMPT, 2 nM probe, 16 hours equilibration. A digest of the protocol:
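TR-FRET probe-displacement binding with 2 nM NAMPT, 2 nM probe and 1 nM Tb-anti-His antibody, run in the presence of 200 μM PRPP and 2.5 mM ATP at 2% DMSO. Equilibrated 16 hours before reading so test compounds could undergo enzymatic modification.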
Background: TR-FRET usually uses a lanthanide donor and a delayed reading to cut background.

The target of assay [1] is NAMPT (human, recombinant, C-terminally His-tagged) (Homo sapiens, UniProt P43490). Put plainly: Time-Resolved Fluorescence Resonance Energy Transfer (TR-FRET) Binding Assay of NAMPT. The following applies: without substrates; 6.8 nM NAMPT, 200 nM probe, 3 hours equilibration. A digest of the protocol: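 11-pt half-log compound series; final 6.8 nM NAMPT, 200 nM OG488 nicotinamide-competitive probe, 1 nM Tb-anti-His Ab, 2% DMSO, HEPES pH 7.5/NaCl/MgCl2/DTT/glycerol buffer. 3 h RT equilibration. Em520/Em495 ratio (Ex 337 nm), control-normalized, 4-parameter fit → IC50.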
Sequence of NAMPT (human, recombinant, C-terminally His-tagged) (P43490 whole entry): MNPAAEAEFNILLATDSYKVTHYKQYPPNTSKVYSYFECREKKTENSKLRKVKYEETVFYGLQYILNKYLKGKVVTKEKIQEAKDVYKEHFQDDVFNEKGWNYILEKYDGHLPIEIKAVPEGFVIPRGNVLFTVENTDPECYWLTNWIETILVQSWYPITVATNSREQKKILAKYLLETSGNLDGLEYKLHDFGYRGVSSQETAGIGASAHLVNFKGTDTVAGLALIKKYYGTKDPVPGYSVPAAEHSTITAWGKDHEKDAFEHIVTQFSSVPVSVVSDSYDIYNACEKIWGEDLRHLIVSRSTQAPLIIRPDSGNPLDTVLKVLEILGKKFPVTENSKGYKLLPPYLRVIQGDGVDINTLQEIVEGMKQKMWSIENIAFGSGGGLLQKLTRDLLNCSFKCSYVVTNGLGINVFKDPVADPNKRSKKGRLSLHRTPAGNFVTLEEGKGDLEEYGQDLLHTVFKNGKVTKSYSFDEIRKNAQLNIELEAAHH

SMILES strings stand for the structures. pIC50: −log10 of the molar value.

Sequence of NAMPT (P43490 whole entry): as above

Regarding `O=C(NCc1ccn2ccnc2c1)Nc1ccc(C2CCN(C(=O)[C@H]3CCOC3)CC2)cc1` [Example 286, 1-(imidazo[1,2-a]pyridin-7-ylmethyl)-3-(4-{1-[(3S)-tetrahydrofuran-3-ylcarbonyl]piperidin-4-yl}phenyl)urea], the results for the pIC50 (with PC3 cells; on NAMPT; in assay [1]) were 7.71, 9.39 and 6.92, respectively.

Turning to `O=C(NCc1ccn2ccnc2c1)Nc1ccc(C2CCN(C(=O)[C@@H]3CCOC3)CC2)cc1` [Example 287, 1-(imidazo[1,2-a]pyridin-7-ylmethyl)-3-(4-{1-[(3R)-tetrahydrofuran-3-ylcarbonyl]piperidin-4-yl}phenyl)urea], the pIC50 (as a rule, −log10 of the IC50, conventionally taken in molar units) in the assay on PC3 cells is 7.62; at NAMPT, 9.45; in assay [1] it was 7.17.

On to `O=C(NCc1ccn2ccnc2c1)Nc1ccc(C2CCN(C(=O)[C@@H]3CCCO3)CC2)cc1` [Example 288, 1-(imidazo[1,2-a]pyridin-7-ylmethyl)-3-(4-{1-[(2S)-tetrahydrofuran-2-ylcarbonyl]piperidin-4-yl}phenyl)urea], for which the values for the negative-log IC50 (pIC50) (in the assay on PC3 cells; on NAMPT; in assay [1]) were 8.09, 9.25 and 7.31, respectively.

For the compound `O=C(NCc1ccn2ccnc2c1)Nc1ccc(C2CCN(C(=O)[C@H]3CCCO3)CC2)cc1` [Example 289, 1-(imidazo[1,2-a]pyridin-7-ylmethyl)-3-(4-{1-[(2R)-tetrahydrofuran-2-ylcarbonyl]piperidin-4-yl}phenyl)urea], the pIC50 in the assay with PC3 cells was 8.03; at NAMPT, 9.54; in assay [1], 6.81.

As for `CC(C)(C)OC(=O)N1CC=C(c2ccc(NC(=O)NCc3ccn4ccnc4c3)c(F)c2)CC1` [Example 290, tert-butyl 4-(3-fluoro-4-{[(imidazo[1,2-a]pyridin-7-ylmethyl)carbamoyl]amino}phenyl)-3,6-dihydropyridine-1(2H)-carboxylate], the negative-log IC50 (pIC50) was 7.14 in the assay on PC3 cells, 9.02 on NAMPT and 6.38 in assay [1].

`CC(C)(C)OC(=O)N1CC[C@H](Oc2ccc(NC(=O)NCc3ccn4ccnc4c3)cc2)C1` [Example 291, tert-butyl (3S)-3-(4-{[(imidazo[1,2-a]pyridin-7-ylmethyl)carbamoyl]amino}phenoxy)pyrrolidine-1-carboxylate]: the pIC50 in the assay with PC3 cells was 7.58; on NAMPT it was 9.35; in assay [1], 6.80.

Regarding `CC(C)(C)OC(=O)Nc1ccc(C(=O)NCc2ccn3ccnc3c2)cc1F` [Example 292, tert-butyl {2-fluoro-4-[(imidazo[1,2-a]pyridin-7-ylmethyl)carbamoyl]phenyl}carbamate], the negative logarithm of the IC50 (pIC50) in the assay with PC3 cells is 5.14; at NAMPT, 8.94; in assay [1] it was 5.81.

As for `CCCn1cc(-c2ccc(C(=O)NCc3ccn4ccnc4c3)s2)cn1` [Example 293, N-(imidazo[1,2-a]pyridin-7-ylmethyl)-5-(1-propyl-1H-pyrazol-4-yl)thiophene-2-carboxamide], the pIC50 in the assay on PC3 cells is 8.11; at NAMPT, 9.77; in assay [1], 7.56.

For `O=C(NCc1ccn2ccnc2c1)c1ccc(-c2cnn(CCN3CCOCC3)c2)s1` [Example 294, N-(imidazo[1,2-a]pyridin-7-ylmethyl)-5-{1-[2-(morpholin-4-yl)ethyl]-1H-pyrazol-4-yl}thiophene-2-carboxamide], the pIC50 in the assay on PC3 cells was 8.73; at NAMPT it was 9.77; in assay [1], 7.35.

Turning to `CCn1cc(-c2ccc(C(=O)NCc3ccn4ccnc4c3)s2)cn1` [Example 295, 5-(1-ethyl-1H-pyrazol-4-yl)-N-(imidazo[1,2-a]pyridin-7-ylmethyl)thiophene-2-carboxamide], the pIC50 is 7.62 in the assay with PC3 cells, 9.53 at NAMPT and 7.25 in assay [1].

For the compound `O=C(NCc1ccn2ccnc2c1)c1ccc(-c2cnn(C3CCS(=O)(=O)C3)c2)s1` (stereo not drawn) [Example 296, 5-[1-(1,1-dioxidotetrahydrothiophen-3-yl)-1H-pyrazol-4-yl]-N-(imidazo[1,2-a]pyridin-7-ylmethyl)thiophene-2-carboxamide], the pIC50 is 7.94 in the assay with PC3 cells, 9.65 at NAMPT and 7.17 in assay [1].

On to `O=C(NCc1ccn2ccnc2c1)c1cnc(C2=CCN(C(=O)c3ccccc3)CC2)s1` [Example 297, 2-(1-benzoyl-1,2,3,6-tetrahydropyridin-4-yl)-N-(imidazo[1,2-a]pyridin-7-ylmethyl)-1,3-thiazole-5-carboxamide], for which the pIC50 with PC3 cells is 7.45; on NAMPT, 9.54; in assay [1] it was 6.75.

For `CC(C)(O)Cn1cc(-c2ccc(C(=O)NCc3ccn4ccnc4c3)cc2)cn1` [Example 298, 4-[1-(2-hydroxy-2-methylpropyl)-1H-pyrazol-4-yl]-N-(imidazo[1,2-a]pyridin-7-ylmethyl)benzamide], the pIC50 in the assay with PC3 cells is 5.63; at NAMPT, 9.25; in assay [1] it was 5.47.

On to `O=C(NCc1ccn2ccnc2c1)c1ccc(-c2ccccc2)s1` [Example 299, N-(imidazo[1,2-a]pyridin-7-ylmethyl)-5-phenylthiophene-2-carboxamide], for which the pIC50 with PC3 cells was 5.06; on NAMPT it was 9.55; in assay [1] it was 6.76.

With `CS(=O)(=O)CCn1cc(-c2ccc(C(=O)NCc3ccn4ccnc4c3)s2)cn1` [Example 300, N-(imidazo[1,2-a]pyridin-7-ylmethyl)-5-{1-[2-(methylsulfonyl)ethyl]-1H-pyrazol-4-yl}thiophene-2-carboxamide], the pIC50 in the assay on PC3 cells was 7.54; on NAMPT, 9.77; in assay [1] it was 7.21.

In the case of `CC(C)(C)OC(=O)N1CCC(c2ccc(C(=O)NCc3ccn4ccnc4c3)cc2)C1` (stereo not drawn) [Example 301, tert-butyl 3-{4-[(imidazo[1,2-a]pyridin-7-ylmethyl)carbamoyl]phenyl}pyrrolidine-1-carboxylate], the pIC50 in the assay on PC3 cells is 7.59; at NAMPT, 9.52; in assay [1], 6.54.

For `CC(C)(C)OC(=O)N1CCC(c2ccc(NC(=O)NCc3ccn4ccnc4c3)cc2)C1` (stereo not drawn) [Example 302, tert-butyl 3-(4-{[(imidazo[1,2-a]pyridin-7-ylmethyl)carbamoyl]amino}phenyl)pyrrolidine-1-carboxylate], the pIC50 is 7.71 in the assay with PC3 cells, 9.36 on NAMPT and 6.80 in assay [1].

Turning to `O=C(NCc1ccn2ccnc2c1)Nc1ccc(NS(=O)(=O)c2ccccc2-c2ccccc2)cc1` [Example 303, N-(4-{[(imidazo[1,2-a]pyridin-7-ylmethyl)carbamoyl]amino}phenyl)biphenyl-2-sulfonamide], the pIC50 is 8.75 in the assay on PC3 cells, 9.77 on NAMPT and 8.00 in assay [1].

`C[C@@H](O)Cn1cc(-c2ccc(C(=O)NCc3ccn4ccnc4c3)s2)cn1` [Example 304, 5-{1-[(2R)-2-hydroxypropyl]-1H-pyrazol-4-yl}-N-(imidazo[1,2-a]pyridin-7-ylmethyl)thiophene-2-carboxamide]: the pIC50 with PC3 cells is 7.73; at NAMPT, 9.77; in assay [1], 7.18.

Consider `O=C(CC1CCCC1)Nc1ccc(C(=O)NCc2ccn3ccnc3c2)cc1F` [Example 305, 4-[(cyclopentylacetyl)amino]-3-fluoro-N-(imidazo[1,2-a]pyridin-7-ylmethyl)benzamide], for which the pIC50 in the assay on PC3 cells was 5.93; at NAMPT, 9.35; in assay [1] it was 6.31.

As to `CC(C)C(=O)N1CC=C(c2ccc(NC(=O)NCc3ccn4ccnc4c3)c(F)c2)CC1` [Example 306, 1-{2-fluoro-4-[1-(2-methylpropanoyl)-1,2,3,6-tetrahydropyridin-4-yl]phenyl}-3-(imidazo[1,2-a]pyridin-7-ylmethyl)urea], the pIC50 with PC3 cells was 7.66; at NAMPT, 9.77; in assay [1] it was 6.84.

For `O=C(NCc1ccn2ccnc2c1)Nc1ccc(C2=CCN(C(=O)C3CCCO3)CC2)cc1F` (stereo not drawn) [Example 307, 1-{2-fluoro-4-[1-(tetrahydrofuran-2-ylcarbonyl)-1,2,3,6-tetrahydropyridin-4-yl]phenyl}-3-(imidazo[1,2-a]pyridin-7-ylmethyl)urea], the pIC50 in the assay on PC3 cells is 7.87; on NAMPT, 9.77; in assay [1], 7.29.

Turning to `O=C(NCc1ccn2ccnc2c1)c1ccc(C2CCN(C(=O)[C@H]3CCOC3)CC2)cc1` [Example 308, N-(imidazo[1,2-a]pyridin-7-ylmethyl)-4-{1-[(3S)-tetrahydrofuran-3-ylcarbonyl]piperidin-4-yl}benzamide], the pIC50 with PC3 cells was 7.53; at NAMPT it was 9.77; in assay [1] it was 6.51.

As to `O=C(NCc1ccn2ccnc2c1)c1ccc(C2CCN(C(=O)[C@@H]3CCOC3)CC2)cc1` [Example 309, N-(imidazo[1,2-a]pyridin-7-ylmethyl)-4-{1-[(3R)-tetrahydrofuran-3-ylcarbonyl]piperidin-4-yl}benzamide], the negative-log IC50 (pIC50) is 7.26 in the assay on PC3 cells, 9.77 at NAMPT and 6.93 in assay [1].

For `O=C(NCc1ccn2ccnc2c1)c1ccc(C2CCN(C(=O)[C@H]3CCCO3)CC2)cc1` [Example 310, N-(imidazo[1,2-a]pyridin-7-ylmethyl)-4-{1-[(2R)-tetrahydrofuran-2-ylcarbonyl]piperidin-4-yl}benzamide], the pIC50 was 7.61 in the assay with PC3 cells, 9.66 on NAMPT and 6.25 in assay [1].
